Calls of active or inactive are those of the source. The calls are words filed in the database; no cut-off is given here.
Key:
[1] = target: Transient receptor potential cation channel subfamily A member 1 (Homo sapiens) (UniProt O75762); experiment: Antagonist activity at human TRPA1 expressed in HEK293 cells assessed as decrease in flufenamic acid-evoked increase in intracellular calcium level at 100 uM measured for 180 secs with 1 sec interval by Fluo4-AM dye-based fluorescence assay relative to control; format: cell-based
Chain of Transient receptor potential cation channel subfamily A member 1 (Homo sapiens) (O75762 whole entry): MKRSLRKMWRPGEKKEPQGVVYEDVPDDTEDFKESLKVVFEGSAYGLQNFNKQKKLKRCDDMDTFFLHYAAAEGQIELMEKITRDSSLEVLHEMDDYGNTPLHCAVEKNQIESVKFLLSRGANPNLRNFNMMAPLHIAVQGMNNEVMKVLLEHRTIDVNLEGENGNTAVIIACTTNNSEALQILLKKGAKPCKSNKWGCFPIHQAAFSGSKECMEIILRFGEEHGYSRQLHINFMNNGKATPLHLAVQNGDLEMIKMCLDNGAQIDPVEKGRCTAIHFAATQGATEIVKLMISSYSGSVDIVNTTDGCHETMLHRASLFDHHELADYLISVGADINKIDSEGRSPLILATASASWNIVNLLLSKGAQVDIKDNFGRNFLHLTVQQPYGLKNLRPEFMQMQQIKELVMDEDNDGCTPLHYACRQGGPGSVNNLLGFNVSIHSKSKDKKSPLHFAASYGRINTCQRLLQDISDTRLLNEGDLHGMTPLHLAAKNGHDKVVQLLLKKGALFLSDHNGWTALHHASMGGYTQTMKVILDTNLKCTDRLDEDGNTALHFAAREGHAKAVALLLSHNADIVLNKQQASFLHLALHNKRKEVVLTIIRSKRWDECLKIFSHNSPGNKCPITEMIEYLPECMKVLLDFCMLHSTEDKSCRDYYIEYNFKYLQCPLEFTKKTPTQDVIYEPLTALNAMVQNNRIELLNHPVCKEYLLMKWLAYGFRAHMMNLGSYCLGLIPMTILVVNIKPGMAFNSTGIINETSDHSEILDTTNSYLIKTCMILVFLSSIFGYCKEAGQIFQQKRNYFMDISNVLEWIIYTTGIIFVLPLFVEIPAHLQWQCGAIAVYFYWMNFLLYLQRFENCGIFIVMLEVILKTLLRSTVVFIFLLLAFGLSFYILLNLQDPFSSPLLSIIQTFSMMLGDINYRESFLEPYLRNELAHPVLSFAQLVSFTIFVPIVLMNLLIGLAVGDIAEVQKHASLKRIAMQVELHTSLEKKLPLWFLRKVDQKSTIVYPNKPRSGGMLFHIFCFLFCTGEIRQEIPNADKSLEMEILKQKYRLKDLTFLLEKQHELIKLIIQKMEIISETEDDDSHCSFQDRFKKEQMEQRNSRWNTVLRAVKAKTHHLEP

[2] = target: 3',5'-cyclic-AMP phosphodiesterase 4B (Homo sapiens, UniProt Q07343); experiment: Inhibition of recombinant human PDE4B using cAMP as substrate after 10 mins by PDE-Glo Phosphodiesterase Assay
Chain of 3',5'-cyclic-AMP phosphodiesterase 4B (Q07343 whole entry): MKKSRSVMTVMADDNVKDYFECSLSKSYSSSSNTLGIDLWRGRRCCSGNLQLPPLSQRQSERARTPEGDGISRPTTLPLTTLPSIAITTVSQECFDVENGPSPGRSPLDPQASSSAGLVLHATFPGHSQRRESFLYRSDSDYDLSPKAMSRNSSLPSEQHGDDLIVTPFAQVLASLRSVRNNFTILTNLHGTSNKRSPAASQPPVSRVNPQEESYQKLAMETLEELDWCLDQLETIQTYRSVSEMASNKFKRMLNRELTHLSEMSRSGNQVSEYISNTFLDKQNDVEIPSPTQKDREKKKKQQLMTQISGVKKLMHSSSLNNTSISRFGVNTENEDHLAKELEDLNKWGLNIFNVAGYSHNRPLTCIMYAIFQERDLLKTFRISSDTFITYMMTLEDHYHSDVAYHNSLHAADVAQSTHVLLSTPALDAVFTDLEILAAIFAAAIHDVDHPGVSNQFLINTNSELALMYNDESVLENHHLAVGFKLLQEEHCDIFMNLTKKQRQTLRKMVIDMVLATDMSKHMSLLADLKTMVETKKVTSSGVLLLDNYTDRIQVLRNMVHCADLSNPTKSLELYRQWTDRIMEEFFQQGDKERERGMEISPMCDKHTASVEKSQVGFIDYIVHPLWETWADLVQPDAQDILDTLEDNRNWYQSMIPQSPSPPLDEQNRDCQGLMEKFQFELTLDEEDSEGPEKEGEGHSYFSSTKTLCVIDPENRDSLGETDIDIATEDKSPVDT

[3] = target: High affinity 3',5'-cyclic-AMP phosphodiesterase 7A (Homo sapiens, UniProt Q13946); experiment: Inhibition of recombinant human PDE7A using cAMP as substrate after 10 mins by PDE-Glo Phosphodiesterase Assay
Chain of High affinity 3',5'-cyclic-AMP phosphodiesterase 7A (Q13946 whole entry): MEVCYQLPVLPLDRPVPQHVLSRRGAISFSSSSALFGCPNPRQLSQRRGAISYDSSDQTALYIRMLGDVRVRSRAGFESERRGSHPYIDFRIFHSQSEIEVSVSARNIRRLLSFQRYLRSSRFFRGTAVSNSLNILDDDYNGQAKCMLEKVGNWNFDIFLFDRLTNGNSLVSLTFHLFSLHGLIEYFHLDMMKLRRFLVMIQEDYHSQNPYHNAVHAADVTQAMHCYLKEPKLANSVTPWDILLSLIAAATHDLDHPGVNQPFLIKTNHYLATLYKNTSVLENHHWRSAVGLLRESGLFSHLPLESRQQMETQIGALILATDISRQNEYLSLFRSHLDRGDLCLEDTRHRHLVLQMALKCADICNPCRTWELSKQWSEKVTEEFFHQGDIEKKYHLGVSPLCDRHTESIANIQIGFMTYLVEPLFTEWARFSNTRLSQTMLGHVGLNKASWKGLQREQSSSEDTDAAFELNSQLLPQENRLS

[4] = target: Transient receptor potential cation channel subfamily A member 1 (Homo sapiens) (UniProt O75762); experiment: Antagonist activity at human TRPA1 expressed in HEK293 cells assessed as decrease in flufenamic acid-evoked increase in intracellular calcium level at 10 uM measured for 180 secs with 1 sec interval by Fluo4-AM dye-based fluorescence assay relative to control; format: cell-based
[5] = target: Transient receptor potential cation channel subfamily A member 1 (Homo sapiens) (UniProt O75762); experiment: Antagonist activity at human TRPA1 expressed in HEK293 cells assessed as decrease in flufenamic acid-evoked increase in intracellular calcium level at 1 uM measured for 180 secs with 1 sec interval by Fluo4-AM dye-based fluorescence assay relative to control; format: cell-based
[6] = Plasma concentration in Wistar rat model of LPS-induced inflammation at 50 mg/kg, ip measured at 1 hr post dose by HPLC method; format: ADME, organism-based
[7] = Plasma concentration in Wistar rat model of LPS-induced inflammation at 50 mg/kg, ip measured at 1.5 hrs post dose by HPLC method; format: ADME, organism-based
[8] = Plasma concentration in Wistar rat model of LPS-induced inflammation at 50 mg/kg, ip measured at 2 hrs post dose by HPLC method; format: ADME, organism-based
Mus musculus [9] = experiment: Antiinflammatory activity in formalin-induced nociception Swiss CD-1 mouse model assessed as time spent on licking or biting formalin injected right hind paw during neurogenic phase at 10 mg/kg, ip measured during phase 1 (reference value: 33 +/- 1.45 sec); format: functional
Mus musculus [10] = experiment: Antiinflammatory activity in formalin-induced nociception Swiss CD-1 mouse model assessed as time spent on licking or biting formalin injected right hind paw during neurogenic phase at 5 mg/kg, ip measured during phase 1 (reference value: 33 +/- 1.45 sec); format: functional
Mus musculus [11] = experiment: Antiinflammatory activity in formalin-induced nociception Swiss CD-1 mouse model assessed as time spent on licking or biting formalin injected right hind paw during neurogenic phase at 2.5 mg/kg, ip measured during phase 1 (reference value: 33 +/- 1.45 sec); format: functional
Mus musculus [12] = experiment: Antiinflammatory activity in formalin-induced nociception Swiss CD-1 mouse model assessed as time spent on licking or biting formalin injected right hind paw during […] phase at 10 mg/kg, ip measured during phase 2 (reference value: 83.63 +/- 12.98 sec); format: functional
Mus musculus [13] = experiment: Antiinflammatory activity in formalin-induced nociception Swiss CD-1 mouse model assessed as time spent on licking or biting formalin injected right hind paw […] at 5 mg/kg, ip measured during phase 2 (reference value: 83.63 +/- 12.98 sec); format: functional
Mus musculus [14] = experiment: Antiinflammatory activity in formalin-induced nociception Swiss CD-1 mouse model assessed as time spent on licking or biting formalin injected right hind paw during […] phase at 2.5 mg/kg, ip measured during phase 2 (reference value: 83.63 +/- 12.98 sec); format: functional
Mus musculus [15] = experiment: Antiinflammatory activity in formalin-induced nociception ip dosed Swiss CD-1 mouse model assessed as time spent on licking or biting formalin injected right hind paw […] measured during phase 2; format: functional; conditions: Swiss CD-1, ip
Mus musculus [16] = experiment: Potency index, ratio of ED50 for HC-030031 to test compound ED50 for formalin-induced nociception ip dosed Swiss CD-1 mouse model assessed as time spent on licking or biting formalin injected right hind paw […] measured during phase 2; format: functional
Rattus norvegicus [17] = experiment: Anti-inflammatory activity in Wistar rat assessed as inhibition of carrageenan-induced paw edema at 20 mg/kg, ip measured at 1 hr post dose relative to control; format: functional
Rattus norvegicus [18] = experiment: Anti-inflammatory activity in Wistar rat assessed as inhibition of carrageenan-induced paw edema at 20 mg/kg, ip measured at 2 hrs post dose relative to control; format: functional
Rattus norvegicus [19] = experiment: Anti-inflammatory activity in Wistar rat assessed as inhibition of carrageenan-induced paw edema at 20 mg/kg, ip measured at 3 hrs post dose relative to control; format: functional
Rattus norvegicus [20] = experiment: Antiallodynic activity in Wistar rat assessed as reduction in oxaliplatin-induced neuropathic pain in late phase by measuring paw withdrawal force at 10 mg/kg, ip measured after 60 mins by Von Frey test; format: functional, organism-based
Rattus norvegicus [21] = experiment: Antiallodynic activity in Wistar rat assessed as reduction in oxaliplatin-induced neuropathic pain in early phase by measuring paw withdrawal force at 10 mg/kg, ip measured after 60 mins by Von Frey test; format: functional, organism-based
Rattus norvegicus [22] = experiment: Antiallodynic activity in Wistar rat assessed as reduction in oxaliplatin-induced neuropathic pain in late phase by measuring paw withdrawal latency time at 1 mg/kg, ip measured after 60 secs by cold plate test; format: functional, organism-based
Rattus norvegicus [23] = experiment: Antiinflammatory activity in Wistar rat assessed as inhibition of LPS-induced TNF-alpha level at 50 mg/kg, ip measured at 1 to 2 hrs post dose by ELISA relative to control; format: functional
Mus musculus [24] = experiment: Antiinflammatory activity in formalin-induced nociception Swiss CD-1 mouse model assessed as time spent on licking or biting formalin injected right hind paw during neurogenic phase at 10 mg/kg, ip measured during phase 1 (reference value: 97 +/- 6.86 sec); format: functional
Mus musculus [25] = experiment: Antiinflammatory activity in formalin-induced nociception Swiss CD-1 mouse model assessed as time spent on licking or biting formalin injected right hind paw during neurogenic phase at 5 mg/kg, ip measured during phase 1 (reference value: 97 +/- 6.86 sec); format: functional
Mus musculus [26] = experiment: Antiinflammatory activity in formalin-induced nociception Swiss CD-1 mouse model assessed as time spent on licking or biting formalin injected right hind paw during neurogenic phase at 2.5 mg/kg, ip measured during phase 1 (reference value: 97 +/- 6.86 sec); format: functional
Mus musculus [27] = experiment: Antiinflammatory activity in formalin-induced nociception Swiss CD-1 mouse model assessed as time spent on licking or biting formalin injected right hind paw during neurogenic phase at 10 mg/kg, ip measured during phase 2 (reference value: 158.3 +/- 12.34 sec); format: functional
Mus musculus [28] = experiment: Antiinflammatory activity in formalin-induced nociception Swiss CD-1 mouse model assessed as time spent on licking or biting formalin injected right hind paw during neurogenic phase at 5 mg/kg, ip measured during phase 2 (reference value: 158.3 +/- 12.34 sec); format: functional
Mus musculus [29] = experiment: Antiinflammatory activity in formalin-induced nociception Swiss CD-1 mouse model assessed as time spent on licking or biting formalin injected right hind paw during neurogenic phase at 2.5 mg/kg, ip measured during phase 2 (reference value: 158.3 +/- 12.34 sec); format: functional
Rattus norvegicus [30] = experiment: Anti-inflammatory activity in Wistar rat assessed as inhibition of carrageenan-induced paw edema at 40 mg/kg, ip measured at 1 hr post dose relative to control; format: functional
Rattus norvegicus [31] = experiment: Anti-inflammatory activity in Wistar rat assessed as inhibition of carrageenan-induced paw edema at 40 mg/kg, ip measured at 2 hrs post dose relative to control; format: functional
Rattus norvegicus [32] = experiment: Anti-inflammatory activity in Wistar rat assessed as inhibition of carrageenan-induced paw edema at 40 mg/kg, ip measured at 3 hrs post dose relative to control; format: functional
Rattus norvegicus [33] = experiment: Anti-inflammatory activity in Wistar rat assessed as inhibition of carrageenan-induced paw edema at 100 mg/kg, ip measured at 1 hr post dose relative to control; format: functional
Rattus norvegicus [34] = experiment: Anti-inflammatory activity in Wistar rat assessed as inhibition of carrageenan-induced paw edema at 100 mg/kg, ip measured at 2 hrs post dose relative to control; format: functional
Rattus norvegicus [35] = experiment: Anti-inflammatory activity in Wistar rat assessed as inhibition of carrageenan-induced paw edema at 100 mg/kg, ip measured at 3 hrs post dose relative to control; format: functional

## COc1nc2c(c(=O)n(C)c(=O)n2C)n1CCCC(=O)NCc1ccccc1Cl
[1]
  inhibition: 16%
[2]
  IC50: > 200 µM
[3]
  IC50: > 200 µM

## CCOc1nc2c(c(=O)n(C)c(=O)n2C)n1CC(=O)Nc1ccc(Cl)cc1
[1]
  inhibition: 7%
[2]
  IC50: > 200 µM
[3]
  IC50: > 200 µM

## COc1nc2c(c(=O)n(C)c(=O)n2C)n1CCCC(=O)Nc1ccc(C(C)C)cc1
[1]
  inhibition: 18%
[2]
  IC50: > 200 µM
[3]
  IC50: > 200 µM

## CCCOc1nc2c(c(=O)n(C)c(=O)n2C)n1CCCC(=O)Nc1ccc(C(C)C)cc1
[1]
  inhibition: 11%
[2]
  IC50: 17.8 µM
[3]
  IC50: 37.6 µM

## CCOc1nc2c(c(=O)n(C)c(=O)n2C)n1CC(=O)Nc1ccc(C(C)(C)C)cc1
[1]
  inhibition: 59%
[4]
  inhibition: 47%
[5]
  inhibition: 10%
[2]
  IC50: > 200 µM
[3]
  IC50: > 200 µM
[6]
  concentration at 1 h: 3750 nM
[7]
  concentration at 1.5 h: 2590 nM
[8]
  concentration at 2 h: 2250 nM
Mus musculus [9]
  Time: 32.17 s
Mus musculus [10]
  Time: 30.83 s
Mus musculus [11]
  Time: 32 s
Mus musculus [12]
  Time: 9.67 s
Mus musculus [13]
  Time: 16.33 s
Mus musculus [14]
  Time: 46 s
Mus musculus [15]
  ED50: 2.57 mg/kg
Mus musculus [16]
  Ratio ED50: 10 - 13
Rattus norvegicus [17]
  inhibition in vivo at 20 mg/kg: 60.5%
Rattus norvegicus [18]
  inhibition in vivo at 20 mg/kg: 54.3%
Rattus norvegicus [19]
  inhibition in vivo at 20 mg/kg: 50.1%
Rattus norvegicus [20]
  Activity: Active
Rattus norvegicus [21]
  Activity: Active
Rattus norvegicus [22]
  Activity: Active
Rattus norvegicus [23]
  inhibition: inactive

## COc1nc2c(c(=O)n(C)c(=O)n2C)n1CC(=O)Nc1ccc(C(C)C)cc1
[1]
  inhibition: 39%
[4]
  inhibition: 13%
[5]
  inhibition: 4%
[2]
  IC50: > 200 µM
[3]
  IC50: > 200 µM

## COc1nc2c(c(=O)n(C)c(=O)n2C)n1CC(=O)NCc1ccccc1Cl
[1]
  inhibition: 3%
[2]
  IC50: > 200 µM
[3]
  IC50: > 200 µM

## CC(C)c1ccc(NC(=O)Cn2cnc3c2c(=O)n(C)c(=O)n3C)cc1
[1]
  inhibition: 43%
[4]
  inhibition: 13%
[5]
  inhibition: 0%
[2]
  IC50: > 200 µM
[3]
  IC50: > 200 µM
Mus musculus [24]
  Time: 71 s
Mus musculus [25]
  Time: 73.83 s
Mus musculus [26]
  Time: 82.83 s
Mus musculus [27]
  Time: 13.9 s
Mus musculus [28]
  Time: 76.45 s
Mus musculus [29]
  Time: 111.33 s
Mus musculus [15]
  ED50: 33.8 mg/kg
Rattus norvegicus [17]
  inhibition in vivo at 20 mg/kg: 4.7%
Rattus norvegicus [18]
  inhibition in vivo at 20 mg/kg: 0.02%
Rattus norvegicus [19]
  inhibition in vivo at 20 mg/kg: 10%
Rattus norvegicus [30]
  inhibition in vivo at 40 mg/kg: 12.1%
Rattus norvegicus [31]
  inhibition in vivo at 40 mg/kg: 23.5%
Rattus norvegicus [32]
  inhibition in vivo at 40 mg/kg: 25.6%
Rattus norvegicus [33]
  inhibition in vivo at 100 mg/kg: 24.1%
Rattus norvegicus [34]
  inhibition in vivo at 100 mg/kg: 48.2%
Rattus norvegicus [35]
  inhibition in vivo at 100 mg/kg: 48.3%

## COc1nc2c(c(=O)n(C)c(=O)n2C)n1CC(=O)Nc1cccc(Cl)c1
[1]
  inhibition: 2%
[2]
  IC50: > 200 µM
[3]
  IC50: > 200 µM

## CCOc1nc2c(c(=O)n(C)c(=O)n2C)n1CC(=O)NCc1ccccc1Cl
[1]
  inhibition: 7%
[2]
  IC50: > 200 µM
[3]
  IC50: > 200 µM

## COc1nc2c(c(=O)n(C)c(=O)n2C)n1CCCC(=O)Nc1ccc(Cl)cc1
[1]
  inhibition: 15%
[2]
  IC50: > 200 µM
[3]
  IC50: > 200 µM

## COc1nc2c(c(=O)n(C)c(=O)n2C)n1CCCC(=O)Nc1ccc(C(C)(C)C)cc1
[1]
  inhibition: 13%
[2]
  IC50: 87.5 µM
[3]
  IC50: 19.8 µM

Source: ChEMBL document CHEMBL4265944, “Novel amide derivatives of 1,3-dimethyl-2,6-dioxopurin-7-yl-alkylcarboxylic acids as multifunctional TRPA1 antagonists and PDE4/7 inhibitors: A new approach for the treatment of pain” (Eur J Med Chem, 2018)
